Paper PMC3089467 (Nucleic Acids Research, 2011)

Biological target: T1, HhaI DNA cytosine-5 methyltransferase (M.HhaI) (Haemophilus parahaemolyticus, UniProt P05102)
T1 sequence (P05102 1-327): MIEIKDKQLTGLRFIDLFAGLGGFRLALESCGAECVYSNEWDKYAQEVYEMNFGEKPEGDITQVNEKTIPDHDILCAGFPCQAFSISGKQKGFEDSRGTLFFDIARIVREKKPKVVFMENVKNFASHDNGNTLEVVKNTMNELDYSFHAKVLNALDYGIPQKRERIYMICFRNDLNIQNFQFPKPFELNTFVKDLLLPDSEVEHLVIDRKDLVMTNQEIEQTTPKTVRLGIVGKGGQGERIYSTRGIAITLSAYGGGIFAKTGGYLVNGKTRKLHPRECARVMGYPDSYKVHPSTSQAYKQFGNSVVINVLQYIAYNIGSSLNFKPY
Assay: stopped-flow absorbance, ternary complex with DNA
Format: binding
Conditions: 100 µM AdoHcy; cognate GCGC/GMGC duplex; pH 7.4, 25 °C

Question: How did the “stopped-flow absorbance, ternary complex with DNA” value turn out when `Nc1ncnc2c1ncn2[C@@H]1O[C@H](CSCC[C@H](N)C(=O)O)[C@@H](O)[C@H]1O` [AdoHcy] was run?
Answer: Its value is “The remaining signal is regained upon addition of AdoHcy to the preformed M.HhaI–DNA complex”.
